What was measured:
Experiment in all cases: relative viability (nuclei count vs DMSO), 5 days (fraction); higher = more cells survive
Tanzisertib = compound: O[C@H]1CC[C@H](Nc2ncc3nc(Nc4c(F)cc(F)cc4F)n([C@H]4CCOC4)c3n2)CC1 [Tanzisertib]
Method in brief: (§1)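 Vehicle-anchored 1536-well plates of lung cancer cell lines, held overnight at 37 °C, were pinned with five library-drug doses (not always all listed) spaced by √10. No medium change followed over the next 5 days, after which the cells were fixed, permeabilised and Hoechst-stained together and imaged at 4×. Nuclei were counted with MetaXpress, and viability is treated-well nuclei over vehicle-well nuclei, taken as a median across plates. Plates passed with control CV below 25% and at least one doubling.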

[1] = compound: C[C@@H](N)c1ccc(C(=O)Nc2ccnc3[nH]ccc23)cc1
Method in brief: as §1

[2] = compound: C1CNCCC1C2=CC(=NN2)C3=CC=NC=C3
Method in brief: as §1

Cell Line | relative viability (Tanzisertib; 0.08 µM) | relative viability (Tanzisertib; 0.253 µM) | relative viability (Tanzisertib; 0.8 µM) | relative viability (Tanzisertib; 2.53 µM) | relative viability (Tanzisertib; 8 µM) | relative viability ([1]; 0.04 µM) | relative viability ([1]; 0.1265 µM) | relative viability ([1]; 0.4 µM) | relative viability ([1]; 1.265 µM) | relative viability ([1]; 4 µM) | relative viability ([2]; 0.08 µM) | relative viability ([2]; 0.8 µM) | relative viability ([2]; 2.53 µM) | relative viability ([2]; 8 µM)
SK-LU-1 | 1.19 | 1.05 | 1.02 | 1.1 | 1.01 | 0.986 | 1.04 | 1 | 0.886 | 0.833 | 1.04 | 0.972 | 1.2 | 1.02
LOU-NH91 | 0.995 | 0.988 | 0.909 | 0.995 | 0.657 | 0.811 | 0.972 | 0.861 | 0.607 | 0.755 | 1.1 | 1.02 | 1.05 | 0.945
LXF-289 | 1.08 | 0.986 | 1.07 | 1.05 | 1.16 | 1.03 | 1 | 1.03 | 1.05 | 0.902 | 1.04 | 1.05 | 0.991 | 1
NCI-H1299 | 1.06 | 1.03 | 1.01 | 0.998 | 1.08 | 0.967 | 0.985 | 0.963 | 0.955 | 0.862 | 1.04 | 1.05 | 0.978 | 0.976
HARA | 1.12 | 1.12 | 0.932 | 1.05 | 0.725 | 1 | 0.929 | 1.11 | 0.689 | 0.779 | 1.05 | 0.898 | 1.16 | 0.928
LU99A | 1.1 | 1.03 | 1.03 | 1.11 | 0.938 |  | 0.989 | 0.96 | 0.924 | 0.692 | 0.948 | 1.01 | 1.04 | 0.946
201T | 1 | 0.969 | 0.997 | 0.933 | 0.898 | 1.01 | 0.971 | 1.01 | 0.976 | 1.12 | 0.97 | 0.993 | 0.983 | 0.938
HCC-827 | 1.07 | 1.05 | 1.03 | 1.02 | 0.663 | 0.901 | 1.13 | 1.05 | 1.05 | 0.938 | 1.05 | 1.04 | 1.06 | 1.01
NCI-H1666 | 0.966 | 1.04 | 1.03 | 1.07 | 1.09 | 1.13 | 1.06 | 1.23 | 1.23 | 1.26 | 0.927 | 1.04 | 1.11 | 0.981
NCI-H1915 | 1.12 | 1.04 | 0.957 | 1.01 | 0.875 | 0.856 | 1.02 | 0.962 |  | 0.884 | 0.968 | 1.07 | 0.999 | 0.977
NCI-H2009 | 1.08 | 1.04 | 0.999 | 1.12 | 1.06 | 0.978 | 1.02 | 0.958 | 0.922 | 0.813 | 1.03 | 1.07 | 1.07 | 1
ChaGo-K-1 | 1.05 | 0.999 | 0.984 | 0.992 | 0.986 | 1.08 | 0.999 | 1.02 | 0.804 | 0.888 | 0.93 | 1.05 | 0.952 | 0.91
COR-L 105 | 1.08 | 0.899 | 0.918 | 1.15 | 0.706 | 0.91 | 0.964 | 1.11 | 0.7 | 0.735 | 0.857 | 0.925 | 1.02 | 0.923
NCI-H2170 | 1.11 | 0.96 | 0.992 | 0.977 | 0.887 | 1.1 | 0.992 | 1 | 0.926 | 0.936 | 0.834 | 0.978 | 0.939 | 0.984
A549 | 1 | 0.99 | 0.976 | 1 | 0.856 | 1.02 | 1.03 | 1.19 | 0.944 | 0.829 | 0.872 | 1.03 | 1.07 | 1.05
SW 1573 | 1.14 | 0.938 | 1 | 1.01 | 0.909 | 1.13 | 1.04 | 1.08 | 0.966 | 0.803 | 0.709 | 1.06 | 1.15 | 1.09
NCI-H1975 | 0.935 | 1.02 | 0.934 | 0.955 | 0.874 | 0.838 | 0.875 | 0.942 | 0.72 | 0.602 | 0.969 | 0.873 | 0.998 | 0.964
Calu-6 | 1.01 | 1.01 | 1.01 | 1.01 | 0.931 | 1.02 | 1.03 | 1.03 | 0.935 | 0.826 | 0.964 | 1.02 | 1.01 | 0.998
NCI-H1648 | 0.97 | 1.14 | 0.926 | 0.97 | 0.667 | 1.44 | 1.21 | 1.59 | 1.82 | 1.37 | 0.979 | 0.826 | 0.754 | 0.97
NCI-H1623 | 1.08 | 1.21 | 1.01 | 0.964 | 0.952 | 1.16 | 0.976 | 1.11 | 1.06 | 1.15 | 0.991 | 0.921 | 1.14 | 1.03
NCI-H3122 | 1.02 | 0.964 | 1.03 | 1 | 0.936 | 0.997 | 1.04 | 0.975 | 1 | 0.894 | 0.978 | 1.03 | 1.02 | 0.988
NCI-H2347 | 1.11 | 0.956 | 1.06 | 1.08 | 0.965 | 0.971 | 0.995 | 1.14 | 0.816 | 0.956 | 1.01 | 0.869 | 1.08 | 1.12
HCC-44 | 0.985 | 1.11 | 1.07 | 1.04 | 1.11 | 0.95 | 0.988 | 1.03 | 0.927 | 0.941 | 0.999 | 1.05 | 1 | 0.999
HCC-78 | 1.06 | 1.02 | 0.986 | 0.97 | 0.682 | 1.23 | 0.933 | 1.23 | 0.72 | 0.92 | 1.04 | 0.706 | 1 | 1.03
